Experimental findings from ChEMBL document CHEMBL3045879, “Isolation of long-chain esters from the rhizome of Polygonatum verticillatum by potent tyrosinase inhibition” (Med Chem Res, 2013) are described below.

The target of the experiment is T1, Tyrosinase (Agaricus bisporus, UniProt O42713).
T1 sequence (O42713 whole entry): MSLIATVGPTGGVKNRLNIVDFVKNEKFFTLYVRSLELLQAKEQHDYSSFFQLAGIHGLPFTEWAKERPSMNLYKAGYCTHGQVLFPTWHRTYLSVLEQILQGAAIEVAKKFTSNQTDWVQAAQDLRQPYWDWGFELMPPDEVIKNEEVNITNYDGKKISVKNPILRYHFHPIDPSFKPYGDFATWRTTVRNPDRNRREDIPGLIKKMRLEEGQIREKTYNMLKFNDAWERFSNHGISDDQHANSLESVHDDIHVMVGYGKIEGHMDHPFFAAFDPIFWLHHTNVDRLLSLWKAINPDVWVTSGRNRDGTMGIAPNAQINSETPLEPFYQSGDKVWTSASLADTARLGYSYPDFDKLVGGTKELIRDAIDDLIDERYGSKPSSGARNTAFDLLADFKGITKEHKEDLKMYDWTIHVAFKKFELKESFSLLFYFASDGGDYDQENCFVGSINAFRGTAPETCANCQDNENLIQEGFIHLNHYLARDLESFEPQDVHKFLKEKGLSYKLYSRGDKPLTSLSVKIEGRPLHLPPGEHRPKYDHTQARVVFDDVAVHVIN
Nature of the experiment: Inhibition of Agaricus bisporus (mushroom) tyrosinase assessed as decrease in dopachrome formation using L-DOPA as substrate preincubated with enzyme for 10 min prior to substrate addition measured for 10 min by microplate reader analysis.

SMILES strings stand for the structures.

With `CCCCCCCCCCCCCCC(=O)OCC(O)CO` (configuration not stated) [2',3'-DIHYDROXY PROPYL PENTADECANOATE], the 50% inhibitory concentration (IC50) (as a rule, the concentration needed to halve the response being measured) was determined as 9.45 µM.
As to `CCCCCCCCCCCCCCC(=O)OCCC` [PROPYL PENTADECANOATE], the 50% inhibitory concentration (IC50) came out at 22.3 µM.
